Results reported in PubChem BioAssay AID2060886 (Molecular Pharmacology Branch, DTP, NCI, 2025).

System: 653999-131-R-J2-PDC complex spheroids, growth inhibition
Experiment: Anticancer human tumor 653999-131-R-J2-PDC patient-derived lung adenocarcinoma cell line growth inhibition [RAS]
Conditions: for IC50: curve of first compound; for viability, T/C: stronger effect = lower value
Summary of the method: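 Tumour cells grown as complex spheroids with HUVEC endothelial cells and mesenchymal stem cells, treated with RAS pathway inhibitor combinations. Each agent spans half-log steps from near clinical Cmax, or 10 microM where Cmax is unknown.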

[1] = second compound 0.00316 µM, first compound 0.00316 µM
[2] = second compound 0.00316 µM, first compound 0.01 µM
[3] = second compound 0.00316 µM, first compound 0.0316 µM
[4] = second compound 0.00316 µM, first compound 0.1 µM
[5] = second compound 0.00316 µM, first compound 0.316 µM
[6] = second compound 0.00316 µM, first compound 1 µM
[7] = second compound 0.01 µM, first compound 0.00316 µM
[8] = second compound 0.01 µM, first compound 0.01 µM
[9] = second compound 0.01 µM, first compound 0.0316 µM
[10] = second compound 0.01 µM, first compound 0.1 µM
[11] = second compound 0.01 µM, first compound 0.316 µM
[12] = second compound 0.01 µM, first compound 1 µM
[13] = second compound 0.0316 µM, first compound 0.00316 µM
[14] = second compound 0.0316 µM, first compound 0.01 µM
[15] = second compound 0.0316 µM, first compound 0.0316 µM
[16] = second compound 0.0316 µM, first compound 0.1 µM
[17] = second compound 0.0316 µM, first compound 0.316 µM
[18] = second compound 0.0316 µM, first compound 1 µM
[19] = second compound 0.1 µM, first compound 0.00316 µM
[20] = second compound 0.1 µM, first compound 0.01 µM
[21] = second compound 0.1 µM, first compound 0.0316 µM
[22] = second compound 0.1 µM, first compound 0.1 µM
[23] = second compound 0.1 µM, first compound 0.316 µM
[24] = second compound 0.1 µM, first compound 1 µM
[25] = second compound 0.316 µM, first compound 0.00316 µM
[26] = second compound 0.316 µM, first compound 0.01 µM
[27] = second compound 0.316 µM, first compound 0.0316 µM
[28] = second compound 0.316 µM, first compound 0.1 µM
[29] = second compound 0.316 µM, first compound 0.316 µM
[30] = second compound 0.316 µM, first compound 1 µM
[31] = second compound 1 µM, first compound 0.00316 µM
[32] = second compound 1 µM, first compound 0.01 µM
[33] = second compound 1 µM, first compound 0.0316 µM
[34] = second compound 1 µM, first compound 0.1 µM
[35] = second compound 1 µM, first compound 0.316 µM
[36] = second compound 1 µM, first compound 1 µM
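Note: spheroids exposed to the agents for seven days before the readout.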

For `CC1(C)CCC(Nc2ncc(C(F)(F)F)c(-c3c[nH]c4c(P(C)(C)=O)c(C#N)ccc34)n2)CN1` (stereo unspecified) + C#Cc1c(F)ccc2cc(O)cc(-c3ncc4c(N5CC6CCC(C5)N6)nc(OCC56CCCN5CC(F)C6)nc4c3F)c12, the IC50 (second compound 0.0316 µM) was > 300 nM, the IC50 (second compound 0.1 µM) was > 300 nM and the IC50 (second compound 0.316 µM) was 2.7 nM. For the same compound, the IC50 (second compound 1 µM) was < 0.949 nM, the IC50 (second compound 3.16 µM) was < 0.949 nM and the IC50 (second compound 10 µM) was < 0.949 nM. For the same compound, the viability, T/C (second compound 0.0316 µM, first compound 0.000949 µM) was 84.7%, the viability, T/C (second compound 0.0316 µM, first compound 0.003 µM) was 66.3% and the viability, T/C (second compound 0.0316 µM, first compound 0.00949 µM) was 62.9%. The viability, T/C (second compound 0.0316 µM, first compound 0.03 µM) was 61.5%, the viability, T/C (second compound 0.0316 µM, first compound 0.0949 µM) was 55.3% and the viability, T/C (second compound 0.0316 µM, first compound 0.3 µM) was 55.6%. The viability, T/C (second compound 0.1 µM, first compound 0.000949 µM) was 69.9%, the viability, T/C (second compound 0.1 µM, first compound 0.003 µM) was 64.2% and the viability, T/C (second compound 0.1 µM, first compound 0.00949 µM) was 59%. It also gave a viability, T/C (second compound 0.1 µM, first compound 0.03 µM) of 56.4%, a viability, T/C (second compound 0.1 µM, first compound 0.0949 µM) of 72.7% and a viability, T/C (second compound 0.1 µM, first compound 0.3 µM) of 55.6%. It also gave a viability, T/C (second compound 0.316 µM, first compound 0.000949 µM) of 59.6%, a viability, T/C (second compound 0.316 µM, first compound 0.003 µM) of 48.3% and a viability, T/C (second compound 0.316 µM, first compound 0.00949 µM) of 46.9%. The viability, T/C (second compound 0.316 µM, first compound 0.03 µM) was 47.3%, the viability, T/C (second compound 0.316 µM, first compound 0.0949 µM) was 44.4% and the viability, T/C (second compound 0.316 µM, first compound 0.3 µM) was 43.5%. For the same compound, the viability, T/C (second compound 1 µM, first compound 0.000949 µM) was 37.5%, the viability, T/C (second compound 1 µM, first compound 0.003 µM) was 36.3% and the viability, T/C (second compound 1 µM, first compound 0.00949 µM) was 37.1%. For the same compound, the viability, T/C (second compound 1 µM, first compound 0.03 µM) was 38.1%, the viability, T/C (second compound 1 µM, first compound 0.0949 µM) was 37.7% and the viability, T/C (second compound 1 µM, first compound 0.3 µM) was 39.3%. It also gave a viability, T/C (second compound 3.16 µM, first compound 0.000949 µM) of 33.8%, a viability, T/C (second compound 3.16 µM, first compound 0.003 µM) of 26.8% and a viability, T/C (second compound 3.16 µM, first compound 0.00949 µM) of 21.6%. For the same compound, the viability, T/C (second compound 3.16 µM, first compound 0.03 µM) was 22.1%, the viability, T/C (second compound 3.16 µM, first compound 0.0949 µM) was 27.1% and the viability, T/C (second compound 3.16 µM, first compound 0.3 µM) was 27.4%. It also gave a viability, T/C (second compound 10 µM, first compound 0.000949 µM) of 26.4%, a viability, T/C (second compound 10 µM, first compound 0.003 µM) of 20.2% and a viability, T/C (second compound 10 µM, first compound 0.00949 µM) of 16.7%. For the same compound, the viability, T/C (second compound 10 µM, first compound 0.03 µM) was 14.1%, the viability, T/C (second compound 10 µM, first compound 0.0949 µM) was 16.9% and the viability, T/C (second compound 10 µM, first compound 0.3 µM) was 17.4%.
In the case of `C=CC(=O)Nc1cc(Nc2nccc(-c3cn(C)c4ccccc34)n2)c(OC)cc1N(C)CCN(C)C` + C=CC(=O)N1CCN(c2nc(OCC3CCCN3C)nc3c(F)c(-c4nc(N)cc(C)c4C(F)(F)F)c(Cl)cc23)C(C)C1, the IC50 (second compound 0.00316 µM) is reported as 838 nM, the IC50 (second compound 0.01 µM) is reported as > 1000 nM and the IC50 (second compound 0.0316 µM) is reported as > 1000 nM. The IC50 (second compound 0.1 µM) was > 1000 nM, the IC50 (second compound 0.316 µM) was 894 nM and the IC50 (second compound 1 µM) was > 1000 nM. For the same compound, the viability, T/C [1] was 104%, the viability, T/C [2] was 90.8% and the viability, T/C [3] was 95.3%. For the same compound, the viability, T/C [4] was 94.9%, the viability, T/C [5] was 70.3% and the viability, T/C [6] was 46.3%. For the same compound, the viability, T/C [7] was 94.1%, the viability, T/C [8] was 83.7% and the viability, T/C [9] was 79.5%. The viability, T/C [10] was 100%, the viability, T/C [11] was 57.9% and the viability, T/C [12] was 56%. For the same compound, the viability, T/C [13] was 113%, the viability, T/C [14] was 100% and the viability, T/C [15] was 95.3%. It also gave a viability, T/C [16] of 69.6%, a viability, T/C [17] of 59.2% and a viability, T/C [18] of 59.4%. The viability, T/C [19] was 108%, the viability, T/C [20] was 86.8% and the viability, T/C [21] was 89.5%. The viability, T/C [22] was 77.5%, the viability, T/C [23] was 69.6% and the viability, T/C [24] was 52.7%. For the same compound, the viability, T/C [25] was 100%, the viability, T/C [26] was 107% and the viability, T/C [27] was 98.8%. The viability, T/C [28] was 70.8%, the viability, T/C [29] was 67.7% and the viability, T/C [30] was 46%. It also gave a viability, T/C [31] of 105%, a viability, T/C [32] of 104% and a viability, T/C [33] of 94.2%. It also gave a viability, T/C [34] of 67%, a viability, T/C [35] of 58.6% and a viability, T/C [36] of 55.9%.
For `O=C(c1ccc(F)c(F)c1Nc1ccc(I)cc1F)N1CC(O)([C@@H]2CCCCN2)C1` + C=CC(=O)N1CCN(c2nc(OCC3CCCN3C)nc3c(F)c(-c4nc(N)cc(C)c4C(F)(F)F)c(Cl)cc23)C(C)C1, the IC50 (second compound 0.00316 µM) was 96.1 nM, the IC50 (second compound 0.01 µM) was 49.2 nM and the IC50 (second compound 0.0316 µM) was 111 nM. The IC50 (second compound 0.1 µM) was 63.8 nM, the IC50 (second compound 0.316 µM) was 87.3 nM and the IC50 (second compound 1 µM) was 70.3 nM. The viability, T/C [1] was 86.1%, the viability, T/C [2] was 83.1% and the viability, T/C [3] was 63.8%. For the same compound, the viability, T/C [4] was 53.6%, the viability, T/C [5] was 25% and the viability, T/C [6] was 10.2%. It also gave a viability, T/C [7] of 94.1%, a viability, T/C [8] of 83.3% and a viability, T/C [9] of 53.2%. For the same compound, the viability, T/C [10] was 37.7%, the viability, T/C [11] was 24.1% and the viability, T/C [12] was 8.42%. The viability, T/C [13] was 105%, the viability, T/C [14] was 86.6% and the viability, T/C [15] was 74.8%. The viability, T/C [16] was 57.6%, the viability, T/C [17] was 22.4% and the viability, T/C [18] was 7.31%. For the same compound, the viability, T/C [19] was 96.9%, the viability, T/C [20] was 80.5% and the viability, T/C [21] was 60.6%. For the same compound, the viability, T/C [22] was 40.5%, the viability, T/C [23] was 29% and the viability, T/C [24] was 9.39%. It also gave a viability, T/C [25] of 84.4%, a viability, T/C [26] of 69.9% and a viability, T/C [27] of 65.8%. It also gave a viability, T/C [28] of 51.2%, a viability, T/C [29] of 24.5% and a viability, T/C [30] of 9.08%. For the same compound, the viability, T/C [31] was 100%, the viability, T/C [32] was 79% and the viability, T/C [33] was 60.3%. It also gave a viability, T/C [34] of 48.8%, a viability, T/C [35] of 25.8% and a viability, T/C [36] of 11%.
